Results published in PubChem BioAssay (NCI).
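A five-concentration, 48-hour dose response in 96-well plates underlies each endpoint, interpolated linearly between surrounding concentrations. TGI is the concentration that stops growth completely.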

Experiments:
[1] = system: RXF 393 renal; test: NCI-60 cell line screen, 48 h
[2] = system: M14 melanoma; test: NCI-60 cell line screen, 48 h

`COc1ccc(C[C@H](N)C(=O)N2C[C@H](CO)C[C@H](n3cnc4c(N(C)C)ncnc43)C2)cc1` was tested. Which TGI [1] did it give?
Its TGI is over 100 µM.

And the TGI [2]?
The TGI was over 100 µM.

For `O=C1c2ccccc2C(=O)c2c1ccc1c2N=C(c2ccc(F)cc2)CC(c2ccc(Cl)c(Cl)c2)N1` (centres undefined), which TGI [2] is on record?
The TGI was 37.7 µM.

Which TGI [1] does the source give for `CSc1nc(NC2OCC(O)C(O)C2O)c(N)c(=O)n1C` (centres undefined) here?
The TGI was over 100 µM.
